Data reported in ChEMBL document CHEMBL3769345, “Rapid Synthesis of Boc-2',6'-dimethyl-l-tyrosine and Derivatives and Incorporation into Opioid Peptidomimetics” (ACS Med Chem Lett, 2015).
Calls of active or inactive are those of the source. The calls are words filed in the database; no cut-off is given here.

What was measured:
[1] = target: T1, Delta-type opioid receptor (Rattus norvegicus, UniProt P33533); test: Agonist activity at rat DOR expressed in rat C6 cells after 1 hr by [35S]GTPgammaS binding assay; assay type: functional, cell-based
[2] = target: T2, Kappa-type opioid receptor (Homo sapiens, UniProt P41145); test: Agonist activity at human KOR expressed in CHO cells at 10 uM after 1 hr by [35S]GTPgammaS binding assay relative to U69,593; assay type: functional, cell-based
[3] = target: T2, Kappa-type opioid receptor; test: Agonist activity at human KOR expressed in CHO cells after 1 hr by [35S]GTPgammaS binding assay; assay type: functional, cell-based
[4] = target: T1, Delta-type opioid receptor; test: Displacement of [3H]diprenorphine from rat DOR expressed in rat C6 cells after 1 hr by liquid scintillation counting method; assay type: cell-based
Mu-type opioid receptor [5] = target: T3, Mu-type opioid receptor (Rattus norvegicus, UniProt P33535); test: Displacement of [3H]diprenorphine from rat MOR expressed in rat C6 cells after 1 hr by liquid scintillation counting method; assay type: cell-based
[6] = target: Delta-type opioid receptor (Rattus norvegicus) (UniProt P33533); test: Agonist activity at rat DOR expressed in rat C6 cells at 10 uM after 1 hr by [35S]GTPgammaS binding assay relative to DPDPE; assay type: functional, cell-based
Mu-type opioid receptor [7] = target: T3, Mu-type opioid receptor; test: Agonist activity at rat MOR expressed in rat C6 cells after 1 hr by [35S]GTPgammaS binding assay; assay type: functional, cell-based
[8] = target: T2, Kappa-type opioid receptor; test: Displacement of [3H]diprenorphine from human KOR expressed in CHO cells after 1 hr by liquid scintillation counting method; assay type: cell-based
[9] = target: Mu-type opioid receptor (Rattus norvegicus) (UniProt P33535); test: Agonist activity at rat MOR expressed in rat C6 cells at 10 uM after 1 hr by [35S]GTPgammaS binding assay relative to DAMGO; assay type: functional, cell-based
Chain of Mu-type opioid receptor (Rattus norvegicus) (P33535 whole entry): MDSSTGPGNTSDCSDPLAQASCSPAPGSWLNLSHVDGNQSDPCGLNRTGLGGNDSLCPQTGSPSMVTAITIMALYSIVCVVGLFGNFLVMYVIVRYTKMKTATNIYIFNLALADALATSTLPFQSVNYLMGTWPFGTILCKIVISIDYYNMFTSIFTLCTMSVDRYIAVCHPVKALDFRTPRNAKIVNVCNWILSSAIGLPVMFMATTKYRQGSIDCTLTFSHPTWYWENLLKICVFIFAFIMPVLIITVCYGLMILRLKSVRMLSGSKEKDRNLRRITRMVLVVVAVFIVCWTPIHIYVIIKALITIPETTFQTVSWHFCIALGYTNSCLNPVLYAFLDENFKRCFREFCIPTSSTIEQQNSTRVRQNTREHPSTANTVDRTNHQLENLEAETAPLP

T3 sequence (P33535 whole entry): as above
T1 sequence (P33533 whole entry): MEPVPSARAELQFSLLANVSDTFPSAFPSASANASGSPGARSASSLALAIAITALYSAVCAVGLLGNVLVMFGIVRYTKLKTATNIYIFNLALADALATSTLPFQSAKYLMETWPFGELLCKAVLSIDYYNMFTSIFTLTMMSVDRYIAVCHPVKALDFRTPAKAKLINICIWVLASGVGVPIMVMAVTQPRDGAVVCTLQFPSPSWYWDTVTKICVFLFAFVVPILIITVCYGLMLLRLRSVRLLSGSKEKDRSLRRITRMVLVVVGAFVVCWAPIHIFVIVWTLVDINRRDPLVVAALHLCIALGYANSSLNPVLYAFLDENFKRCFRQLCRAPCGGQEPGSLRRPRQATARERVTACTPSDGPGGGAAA
T2 sequence (P41145 whole entry): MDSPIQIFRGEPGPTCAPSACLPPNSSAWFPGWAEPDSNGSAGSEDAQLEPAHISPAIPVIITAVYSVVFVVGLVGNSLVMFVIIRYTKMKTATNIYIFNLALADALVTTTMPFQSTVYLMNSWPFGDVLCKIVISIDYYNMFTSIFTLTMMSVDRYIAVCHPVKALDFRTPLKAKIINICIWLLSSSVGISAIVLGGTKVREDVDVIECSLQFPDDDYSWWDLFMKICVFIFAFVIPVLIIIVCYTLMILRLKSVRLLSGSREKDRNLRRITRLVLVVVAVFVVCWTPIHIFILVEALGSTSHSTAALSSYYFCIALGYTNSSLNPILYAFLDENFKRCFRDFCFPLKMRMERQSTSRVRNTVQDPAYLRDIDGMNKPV
Chain of Delta-type opioid receptor (Rattus norvegicus) (P33533 whole entry): as the sequence (P33533 whole entry) above

SMILES	EC50 ([1]; c6)	max activation [2] [%]	EC50 [3] [µM]	Ki [4] [µM]	Ki (Mu-type opioid receptor [5]) [µM]	max activation [6]	EC50 (Mu-type opioid receptor [7]) [µM]	Ki [8] [µM]	max activation [9] [%]	EC50 ([1]; read-out: EC50) [µM]
N[C@@H](Cc1c(Cl)cc(O)cc1Cl)C(=O)N[C@@H]1CCNc2ccc(Cc3ccccc3)cc21	Not Active	32	1.2	0.037	0.00047	inactive	0.033	0.035	83	–
Cc1cc(O)ccc1C[C@H](N)C(=O)N[C@@H]1CCNc2ccc(Cc3ccccc3)cc21	Not Active	41	2.4	0.042	0.0017	–	0.044	0.096	69	–
N[C@@H](Cc1ccc2cccc(O)c2c1)C(=O)N[C@@H]1CCNc2ccc(Cc3ccccc3)cc21	–	–	–	1.6	0.44	–	–	2.5	–	–
Cc1cc(C[C@H](N)C(=O)N[C@@H]2CCNc3ccc(Cc4ccccc4)cc32)c(C)cc1O	–	22	0.37	0.39	0.0065	53%	0.039	0.73	89	5.9
Cc1cccc(C)c1C[C@H](N)C(=O)N[C@@H]1CCNc2ccc(Cc3ccccc3)cc21	Not Active	38	4.8	0.66	0.018	–	0.28	0.13	86	–
